Test results: publication PMC2848536 (Journal of medicinal chemistry, 2010)
Entries after “also recorded” stand apart in the source; their conditions may differ.

Tests used:
[1] = tested on: microfilaments; conditions: result in words; cited from earlier work
[2] = tested on: HCT-116 cells; conditions: read-out: IC50 against HCT-116 cells, cytotoxicity; cited from earlier work
[3] = tested on: actin cytoskeleton of HeLa cells; experiment: HeLa cell microfilament; format: cell-based, human; conditions: 24 h, result in words

Compound | MF disruption at 5 µM [1] | IC50 [2] [µM] | microfilament disruption at 80 nM [3]
18-epi-latrunculol | without MF disruption | 2.1 | –
C/C1=C\[C@H](C)C[C@H](C)OC(=O)C[C@H](c2ccc(O)cc2)NC(=O)[C@@H](Cc2c(Br)[nH]c3ccccc23)N(C)C(=O)[C@H](C)NC(=O)[C@@H](C)C1 [Compound 1, jasplakinolide] | – | – | exhibited microfilament disruption
C=C1C[C@H](C)C(=O)N[C@@H](C)C(=O)N(C)[C@H](Cc2c(Br)[nH]c3ccccc23)C(=O)N[C@@H](c2ccc(O)cc2)CC(=O)O[C@@H](C)C[C@@H](C)C1=O [Compound 11, jasplakinolide B] | – | – | without microfilament disruption; also recorded: without MF disruption; also recorded: did not exhibit microfilament-disrupting activity
jasplakinolide F [Compound 4] | – | – | exhibited microfilament disruption
